Experimental data reported in patent US11053239B2, “Compounds as BLC-2-selective apoptosis-inducing agents” (Fochon Pharmaceuticals, Ltd., priority 2017, dated 2021).
Where two headings read alike, the source gives them in different places.

What was measured:
RS4; 11 cells = assay: Cell proliferation assay (MTS), RS4; 11 cells; assay type: cell-based; settings: RS4, 11 (ATCC CRL-1873) cell proliferation, 30000 cells/well, 72 h, MTS, mechanism-based readout of Bcl-2 inhibition, read-out: RS4, 11 IC50
From the text: (§1) MTS testing kit was purchased from Promega. The RPMI-1640, Fetal bovine serum and Penicillin-Streptomycin were purchased from Gibco. Dimethyl sulfoxide (DMSO) was purchased from Sigma.
(§2) To investigate whether a compound is able to inhibit the activity of Bcl-2 in cells, a mechanism-based assay using DOHH2 (DSMZ No.® ACC 47) and RS4; 11 (ATCC® CRL-1873™) cell was developed. In this assay, inhibition of Bcl-2 was detected by the inhibition of DOHH2 and RS4; 11 cells proliferation. DOHH2 and RS4; 11 cells were cultured in culture flasks to 40-80% confluence in RPMI-1640 plus 10% fetal bovine serum. Cells were collected and plated onto 96-well plates at desired cell density (DOHH2: 5000 cells/well; RS4; 11: 30000 cells/well). Plates were incubated overnight at 37° C., with 5% CO2 to adhere. Compounds were added to the plates, and the final compound concentrations were 10000, 3333, 1111, […], 124, 41, 14, 4.6 and 1.5 nM. Plates plated with DOHH2 or RS4; 11 cells were placed at 37° C., with 5% CO2 for 120 h (DOHH2) or 72 h (RS4; 11) respectively. 20 μl MTS/100 μl medium mixture solution were added to each well and incubate the plates for exactly 2 hours. The reaction was stopped by adding 25 μl 10% SDS per well. Measure absorbance at 490 nm and 650 nm (reference wavelength). ICso was calculated using GraphPad Prism 5.0.

DOHH2 cells = assay: Cell proliferation assay (MTS), DOHH2 cells; assay type: cell-based; settings: DOHH2 (DSMZ ACC 47) cell proliferation, 5000 cells/well, 120 h, MTS, mechanism-based readout of Bcl-2 inhibition, read-out: DOHH2 IC50
From the text: as §1, §2

IC50 (RS4; 11 cells; Homo sapiens, RS4-11, 72 h) [nM]	Compound	IC50 (DOHH2 cells; Homo sapiens, DOHH-2, 120 h) [nM]	IC50 (RS4; 11 cells) [nM]	IC50 (DOHH2 cells) [nM]
18	CC1(C)CCC(CN2CCN(c3ccc(C(=O)NS(=O)(=O)c4ccc(NCC5CCOCC5)c([N+](=O)[O-])c4)c(Oc4cnc5[nH]ccc5c4)c3)CC2)=C(c2ccc(Cl)cc2)C1 [Reference compound 1, 2-((1H-pyrrolo[2,3-b]pyridin-5-yl)oxy)-4-(4-((4′-chloro-5,5-dimethyl-3,4,5,6-tetrahydro-[1,1′-biphenyl]-2-yl)methyl)piperazin-1-yl)-N-((3-nitro-4-(((tetrahydro-2H-pyran-4-yl)methyl)amino)phenyl)sulfonyl)benzamide, reference compound]	57	–	–
22	C[C@@H](CCN1CCS(=O)(=NC#N)CC1)Nc1ccc(S(=O)(=O)NC(=O)c2ccc(N3CCN(CC4=C(c5ccc(Cl)cc5)CC(C)(C)CC4)CC3)cc2Oc2cnc3[nH]ccc3c2)cc1[N+](=O)[O-] [Example 95, (S)-2-((1H-pyrrolo[2,3-b]pyridin-5-yl)oxy)-4-(4-((4′-chloro-5,5-dimethyl-3,4,5,6-tetrahydro-[1,1′-biphenyl]-2-yl)methyl)piperazin-1-yl)-N-((4-((4-(1-(cyanoimino)-1-oxido-1λ^6-thiomorpholino)butan-2-yl)amino)-3-nitrophenyl)sulfonyl) benzamide]	71	–	–
24	CC(C)C(=O)N=S1(=O)CCN(CCNc2ccc(S(=O)(=O)NC(=O)c3ccc(N4CCN(CC5=C(c6ccc(Cl)cc6)CC(C)(C)CC5)CC4)cc3Oc3cnc4[nH]ccc4c3)cc2[N+](=O)[O-])CC1 [Example 68, 2-((1H-pyrrolo[2,3-b]pyridin-5-yl)oxy)-4-(4-((4′-chloro-5,5-dimethyl-3,4,5,6-tetrahydro-[1,1′-biphenyl]-2-yl)methyl)piperazin-1-yl)-N-((4-((2-(1-(isobutyrylimino)-1-oxido-1λ^6-thiomorpholino)ethyl)amino)-3-nitrophenyl)sulfonyl) benzamide]	217	–	–
16	CCN=S1(=O)CCN(CC[C@H](C)Nc2ccc(S(=O)(=O)NC(=O)c3ccc(N4CCN(CC5=C(c6ccc(Cl)cc6)CC(C)(C)CC5)CC4)cc3Oc3cnc4[nH]ccc4c3)cc2[N+](=O)[O-])CC1 [Example 78, (S)-2-((1H-pyrrolo[2,3-b]pyridin-5-yl)oxy)-4-(4-((4′-chloro-5,5-dimethyl-3,4,5,6-tetrahydro-[1,1′-biphenyl]-2-yl)methyl)piperazin-1-yl)-N-((4-((4-(1-(ethylimino)-1-oxido-1λ^6-thiomorpholino)butan-2-yl)amino)-3-nitrophenyl)sulfonyl) benzamide]	11	–	–
20	C[C@@H](CCN1CCC(N=S(C)(C)=O)CC1)Nc1ccc(S(=O)(=O)NC(=O)c2ccc(N3CCN(CC4=C(c5ccc(Cl)cc5)CC(C)(C)CC4)CC3)cc2Oc2cnc3[nH]ccc3c2)cc1[N+](=O)[O-] [Example 96, (S)-2-((1H-pyrrolo[2,3-b]pyridin-5-yl)oxy)-4-(4-((4′-chloro-5,5-dimethyl-3,4,5,6-tetrahydro-[1,1′-biphenyl]-2-yl)methyl)piperazin-1-yl)-N-((4-((4-(4-((dimethyl(oxo)-λ^6-sulfanylidene)amino)piperidin-1-yl)butan-2-yl)amino)-3-nitrophenyl)sulfonyl) benzamide]	26	–	–
116	CC(C)C(=O)N=S1(=O)CCN(CC[C@H](C)Nc2ccc(S(=O)(=O)NC(=O)c3ccc(N4CCN(CC5=C(c6ccc(Cl)cc6)CC(C)(C)CC5)CC4)cc3Oc3cnc4[nH]ccc4c3)cc2S(=O)(=O)C(F)(F)F)CC1 [Example 90, (S)-2-((1H-pyrrolo[2,3-b]pyridin-5-yl)oxy)-4-(4-((4′-chloro-5,5-dimethyl-3,4,5,6-tetrahydro-[1,1′-biphenyl]-2-yl)methyl)piperazin-1-yl)-N-((4-((4-(1-(isobutyrylimino)-1-oxido-1λ^6-thiomorpholino)butan-2-yl)amino)-3-((trifluoromethyl)sulfonyl)phenyl)sulfonyl) benzamide]	225	–	–

Second part, the compound before the results:

Compound	IC50 (RS4; 11 cells; Homo sapiens, RS4-11, 72 h) [nM]	IC50 (DOHH2 cells; Homo sapiens, DOHH-2, 120 h) [nM]	IC50 (RS4; 11 cells) [nM]	IC50 (DOHH2 cells) [nM]
CCN=S1(=O)CCC(CNc2ccc(S(=O)(=O)NC(=O)c3ccc(N4CCN(CC5=C(c6ccc(Cl)cc6)CC(C)(C)CC5)CC4)cc3Oc3cnc4[nH]ccc4c3)cc2[N+](=O)[O-])CC1 (centres unmarked) [Example 30, 2-((1H-pyrrolo[2,3-b]pyridin-5-yl)oxy)-4-(4-((4′-chloro-5,5-dimethyl-3,4,5,6-tetrahydro-[1,1′-biphenyl]-2-yl)methyl)piperazin-1-yl)-N-((4-(((1-(ethylimino)-1-oxidohexahydro-1λ^6-thiopyran-4-yl)methyl)amino)-3-nitrophenyl)sulfonyl) benzamide]	43	132	–	–
CC(=O)N=S1(=O)CCN(C[C@H](C)Nc2ccc(S(=O)(=O)NC(=O)c3ccc(N4CCN(CC5=C(c6ccc(Cl)cc6)CC(C)(C)CC5)CC4)cc3Oc3cnc4[nH]ccc4c3)cc2[N+](=O)[O-])CC1 [Example 40, (S)-2-((1H-pyrrolo[2,3-b]pyridin-5-yl)oxy)-N-((4-((1-(1-(acetylimino)-1-oxido-1λ^6-thiomorpholino)propan-2-yl)amino)-3-nitrophenyl)sulfonyl)-4-(4-((4′-chloro-5,5-dimethyl-3,4,5,6-tetrahydro-[1,1′-biphenyl]-2-yl)methyl)piperazin-1-yl)benzamide]	29	84	–	–
CCN=S1(=O)CCN(C[C@H](C)Nc2ccc(S(=O)(=O)NC(=O)c3ccc(N4CCN(CC5=C(c6ccc(Cl)cc6)CC(C)(C)CC5)CC4)cc3Oc3cnc4[nH]ccc4c3)cc2[N+](=O)[O-])CC1 [Example 38, (S)-((1H-pyrrolo[2,3-b]pyridin-5-yl)oxy)-4-(4-((4′-chloro-5,5-dimethyl-3,4,5,6-tetrahydro-[1,1′-biphenyl]-2-yl)methyl)piperazin-1-yl)-N-((4-((1-(1-(ethylimino)-1-oxido-1λ^6-thiomorpholino)propan-2-yl)amino)-3-nitrophenyl)sulfonyl) benzamide]	28	108	–	–
2-((1H-pyrrolo[2,3-b] pyridin-5-yl)oxy)-4-(4-((4′- chloro-5,5-dimethyl-3,4,5,6- tetrahydro-[1,1′-biphenyl]-2-yl) methyl)piperazin-1-yl)- N-((4-((2-(4-((dimethyl(oxo)-λ^6- sulfanylidene) amino)piperidin-1-yl)ethyl) amino)-3-nitrophenyl)sulfonyl) benzamide [Example 98]	–	–	2	176
COC(=O)N=S1(=O)CCN(CCNc2ccc(S(=O)(=O)NC(=O)c3ccc(N4CCN(CC5=C(c6ccc(Cl)cc6)CC(C)(C)CC5)CC4)cc3Oc3cnc4[nH]ccc4c3)cc2[N+](=O)[O-])CC1 [Example 43, methyl (4-(2-((4-(N-(2-((1H-pyrrolo[2,3-b]pyridin-5-yl)oxy)-4-(4-((4′-chloro-5,5-dimethyl-3,4,5,6-tetrahydro-[1,1′-biphenyl]-2-yl)methyl)piperazin-1-yl)benzoyl)sulfamoyl)-2-nitrophenyl)amino)ethyl)-1-oxido-1λ^6-thiomorpholin-1-ylidene) carbamate]	102	271	–	–
CN=S1(=O)CCN(C[C@H](C)Nc2ccc(S(=O)(=O)NC(=O)c3ccc(N4CCN(CC5=C(c6ccc(Cl)cc6)CC(C)(C)CC5)CC4)cc3Oc3cnc4[nH]ccc4c3)cc2[N+](=O)[O-])CC1 [Example 7, (S)-2-((1H-pyrrolo[2,3-b]pyridin-5-yl)oxy)-4-(4-((4′-chloro-5,5-dimethyl-3,4,5,6-tetrahydro-[1,1′-biphenyl]-2-yl)methyl)piperazin-1-yl)-N-((4-((1-(1-(methylimino)-1-oxido-1λ^6-thiomorpholino)propan-2-yl)amino)-3-nitrophenyl)sulfonyl)benzamide]	55	111	–	–
CC1(C)CCC(CN2CCN(c3ccc(C(=O)NS(=O)(=O)c4ccc(NCC5CCC(N=S6(=O)CCCC6)CC5)c(S(=O)(=O)C(F)(F)F)c4)c(Oc4cnc5[nH]ccc5c4)c3)CC2)=C(c2ccc(Cl)cc2)C1 (centres unmarked) [Example 64, 2-((1H-pyrrolo[2,3-b]pyridin-5-yl)oxy)-4-(4-((4′-chloro-5,5-dimethyl-3,4,5,6-tetrahydro-[1,1′-biphenyl]-2-yl)methyl)piperazin-1-yl)-N-((4-(((4-((1-oxidotetrahydro-1λ^6-thiophen-1-ylidene)amino)cyclohexyl)methyl)amino)-3-((trifluoromethyl)sulfonyl)phenyl)sulfonyl)benzamide]	216	320	–	–
